Source: patent US20230159510A1, “NOVEL PRMT5 INHIBITORS” (AMGEN INC., priority 2020, published 2023)
Like-named read-outs stand apart in the source and are kept apart here.

Tests used:
HCT116 MTAP null cells = assay: HCT116 proliferation assay, MTAP null cells (CellTiter-Glo, 6 days); type: cell-based; conditions: HCT116-MTAP null, 144 h, read-out: Protif_ HCT116-MTAP null IC50
Method in brief: (§1)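 Readout is CellTiter-Glo luminescence after 6 days of drug exposure at 37 °C. Compounds tested as 8–9 point, 3-fold dilution series starting at 1 or 10 µM, versus DMSO only, on cells in RPMI 1640 with 10% FBS.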

HCT116 WT cells = assay: HCT116 proliferation assay, WT cells (CellTiter-Glo, 6 days); type: cell-based; conditions: read-out: Prolif_HCT116-WT IC50
Method in brief: as §1

PRMT5/MEP50 = PRMT5/MEP50 (Homo sapiens, UniProt O14744); assay: MTase-Glo methyl transferase assay, Method B (FL-Histone H2A, 1 µM MTA, 1 h pre-incubation); type: biochemical; set-up: purchased Reaction Biology Corp RD-11-292; conditions: read-out: PRMT5 MTase Glo Ki (nM, Meth. B)
PRMT5/MEP50, sequence (O14744 2-637 limits assumed): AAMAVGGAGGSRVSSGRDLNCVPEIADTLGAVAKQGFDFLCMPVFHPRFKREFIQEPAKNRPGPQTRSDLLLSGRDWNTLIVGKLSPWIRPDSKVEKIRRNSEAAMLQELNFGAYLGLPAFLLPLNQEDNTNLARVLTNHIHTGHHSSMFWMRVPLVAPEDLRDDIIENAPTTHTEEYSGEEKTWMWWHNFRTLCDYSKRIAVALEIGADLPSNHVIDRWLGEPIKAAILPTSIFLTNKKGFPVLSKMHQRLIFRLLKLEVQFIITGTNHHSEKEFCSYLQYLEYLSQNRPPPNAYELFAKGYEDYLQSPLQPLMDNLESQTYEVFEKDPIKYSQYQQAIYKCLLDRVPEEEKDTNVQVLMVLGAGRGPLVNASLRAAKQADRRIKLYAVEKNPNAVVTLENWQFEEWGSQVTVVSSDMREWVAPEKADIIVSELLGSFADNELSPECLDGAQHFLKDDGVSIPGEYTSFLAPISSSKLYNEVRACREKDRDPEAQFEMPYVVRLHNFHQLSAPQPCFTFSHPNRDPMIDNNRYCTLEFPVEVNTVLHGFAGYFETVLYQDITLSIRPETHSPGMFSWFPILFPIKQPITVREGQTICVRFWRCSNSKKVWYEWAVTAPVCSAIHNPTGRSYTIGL
PRMT5/MEP50, sequence (Q9BQA1 2-342 partner limits assumed): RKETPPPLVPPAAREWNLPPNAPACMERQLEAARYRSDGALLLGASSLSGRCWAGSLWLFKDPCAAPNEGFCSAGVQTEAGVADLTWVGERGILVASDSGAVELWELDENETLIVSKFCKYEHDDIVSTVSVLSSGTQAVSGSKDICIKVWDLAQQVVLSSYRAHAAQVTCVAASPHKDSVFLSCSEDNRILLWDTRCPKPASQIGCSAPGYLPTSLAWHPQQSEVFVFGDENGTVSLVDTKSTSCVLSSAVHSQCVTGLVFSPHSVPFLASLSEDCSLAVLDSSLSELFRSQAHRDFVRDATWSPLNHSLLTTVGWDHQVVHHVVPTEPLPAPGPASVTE
Method in brief: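 PRMT5/MEP50 (4 nM) was pre-incubated 1 h with compound, 5 µM SAM and 1 µM MTA, then started with 2.5 µM FL-Histone H2A in Tris pH 8.0 buffer. After 20 h at room temperature, SAH was detected by MTase-Glo luminescence, and IC50/KI were fitted from dose-response curves.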

Row | IC50 (HCT116 MTAP null cells) [nM] | IC50 (HCT116 WT cells; Homo sapiens, HCT-116, 144 h) [nM] | Ki (PRMT5/MEP50) [nM] | IC50 (HCT116 WT cells) [nM] | SMILES
1 | 128 | 1300 | 1.87 | – | Cc1cc2cc(C(=O)N(Cc3ccc4cn[nH]c4c3)Cc3ccc(C(F)(F)F)cn3)ccc2nc1N [Example 619, N-((1H-indazol-6-yl)methyl)-2-amino-3-methyl-N-((5-(trifluoromethyl)pyridin-2-yl)methyl)quinoline-6-carboxamide]
2 | 100 | > 1000 | 1.83 | – | Cc1cc2cc(C(=O)N(Cc3ccc4[nH]c(=O)oc4c3)Cc3ccc(C(F)(F)F)cn3)ccc2nc1N [Example 620, 2-amino-3-methyl-N-((2-oxo-2,3-dihydrobenzo [d]oxazol-6-yl)methyl)-N-((5-(trifluoromethyl)pyridin-2-yl)methyl)quinoline-6-carboxamide]
3 | 133 | > 1000 | 3.97 | – | Cc1cc2cc(C(=O)N(Cc3ccn4ccnc4c3)Cc3ccc(C(F)(F)F)cn3)ccc2nc1N [Example 621, 2-amino-N-(imidazo[1,2-a]pyridin-7-ylmethyl)-3-methyl-N-((5-(trifluoromethyl)pyridin-2-yl)methyl)quinoline-6-carboxamide]
4 | 130 | > 1000 | 1.98 | – | Cc1cc2cc(C(=O)N(Cc3ccc4ccoc4c3)Cc3ccc(C(F)(F)F)cn3)ccc2nc1N [Example 622, 2-amino-N-(benzofuran-6-ylmethyl)-3-methyl-N-((5-(trifluoromethyl)pyridin-2-yl)methyl)quinoline-6-carboxamide]
5 | 56 | 900 | 3.14 | – | Cc1cc2cc(C(=O)N(Cc3ccc4[nH]ccc4c3)Cc3ccc(C(F)(F)F)cn3)ccc2nc1N [Example 623, N-((1H-indol-5-yl)methyl)-2-amino-3-methyl-N-((5-(trifluoromethyl)pyridin-2-yl)methyl)quinoline-6-carboxamide]
6 | 187 | > 1000 | 5.19 | – | Cc1ccc2c(c1)C(N(Cc1ccc(C(F)(F)F)cn1)C(=O)c1ccc3nc(N)c(C)cc3c1)CC2 (stereo not drawn) [Example 624, 2-amino-3-methyl-N-(6-methyl-2,3-dihydro-1H-inden-1-yl)-N-((5-(trifluoromethyl)pyridin-2-yl)methyl)quinoline-6-carboxamide]
7 | 53 | 440 | 3 to 4 | – | Cc1cc2cc(C(=O)N(Cc3ccc(C(F)(F)F)cn3)C3CCc4c(O)cccc43)ccc2nc1N (stereo not drawn) [Example 628, 2-amino-N-(4-hydroxy-2,3-dihydro-1H-inden-1-yl)-3-methyl-N-((5-(trifluoromethyl)pyridin-2-yl)methyl)quinoline-6-carboxamide]
8 | 270 | > 1000 | 4.69 | – | Cc1cc2cc(C(=O)N(Cc3ccc(C(F)(F)F)cn3)C3CCc4nc(N)ncc4C3)ccc2nc1N (stereo not drawn) [Example 668, 2-amino-N-(2-amino-5,6,7,8-tetrahydroquinazolin-6-yl)-3-methyl-N-[ [5-(trifluoromethyl)-2-pyridyl]methyl] quinoline-6-carboxamide]
9 | 404 | > 1000 | 5.56 | – | Cc1cc2cc(C(=O)N(Cc3ccc(C(F)(F)F)cn3)C3CCc4[nH]ncc4C3)ccc2nc1N (stereo not drawn) [Example 672, 2-amino-3-methyl-N-(4,5,6,7-tetrahydro-1H-mdazol-5-yl)-N-[[5-(trifluoromethyl)-2-pyridyl]methyl] quinoline-6-carboxamide]
10 | 255 | > 1000 | 3.88 | – | Cc1cc2cc(C(=O)N(Cc3ccc(C(F)(F)F)cn3)C[C@H]3CC[C@H](O)CC3)ccc2nc1N [Example 676, 2-amino-N-[(4-hydroxycyclohexyl)methyl]-3-methyl-N-[[5-(trifluoromethyl)-2-pyridyl]methyl] quinoline-6-carboxamide]
11 | 157 | 7700 | 1.76 | – | Cc1cc2cc(C(=O)N(Cc3ccc(CC(N)=O)cc3)Cc3ccc(C(F)(F)F)cn3)ccc2nc1N [Example 680, 2-amino-N-[ [4-(2-amino-2-oxoethyl)phenyl]methyl]-3-methyl-N-[[5-(trifluoromethyl)-2-pyridyl]methyl] quinoline-6-carboxamide]
12 | 297 | > 1000 | 4.29 | – | Cc1cc2cc(C(=O)N(Cc3ccc(C(F)(F)F)cn3)CC3CCOCC3)ccc2nc1N [Example 683, 2-amino-3-methyl-N-(tetrahydropyran-4-ylmethyl)-N-[[5-(trifluoromethyl)-2-pyridyl]methyl] quinoline-6-carboxamide]
13 | 114 | > 1000 | 2.29 | – | Cc1cc2cc(C(=O)N(Cc3ccc(C(F)(F)F)cn3)Cc3ccnc4[nH]ccc34)ncc2nc1N [Example 684, 2-amino-3-methyl-N-(1H-pyrrolo[2,3-b]pyridin-4-ylmethyl)-N-[[5-(trifluoromethyl)-2-pyridyl]methyl]-1,7-naphthyridine-6-carboxamide]
14 | 224 | 8600 | 5.62 | – | Cc1cc2cc(C(=O)N(Cc3ccc(C(F)(F)F)cn3)CC(C)C#N)ccc2nc1N (stereo not drawn) [Example 694, 2-amino-N-(2-cyanopropyl)-3-methyl-N-[[5-(trifluoromethyl)-2-pyridyl]methyl] quinoline-6-carboxamide]
15 | 50 | > 1000 | 3.86 | – | Cc1cc2cc(C(=O)N(Cc3ccc(C(F)(F)F)cn3)C3CCCC3C#N)ccc2nc1N (stereo not drawn) [Example 699, 2-amino-N-(2-cyanocyclopentyl)-3-methyl-N-[[5-(trifluoromethyl)-2-pyridyl]methyl] quinoline-6-carboxamide]
16 | 46 | 560 | 5.12 | – | Cc1cc2cc(C(=O)N(Cc3ccc(C(F)(F)F)cn3)C3CCCC3C#N)c(F)cc2nc1N (stereo not drawn) [Example 702, 2-amino-N-(2-cyanocyclopentyl)-7-fluoro-3-methyl-N-[[5-(trifluoromethyl)-2-pyridyl]methyl] quinoline-6-carboxamide]
17 | 222 | 2300 | 5.62 | – | Cc1cc2cc(C(=O)N(Cc3ccc(C#N)cn3)C3CCCC3C#N)c(F)cc2nc1N (stereo not drawn) [Example 703, 2-amino-N-(2-cyanocyclopentyl)-N-[(5-cyano-2-pyridyl)methyl] -7-fluoro-3-methyl-quinoline-6-carboxamide]
18 | 80 | – | 25.1 | > 1000 | CO[C@@H]1COCC[C@H]1N(Cc1ccc(C(F)(F)F)cn1)C(=O)c1ccc2nc(N)c(C)cc2c1 [Example 704, 2-amino-N-[(3 S,4R)-3-methoxytetrahydropyran-4-yl]-3-methyl-N-[[5-(trifluoromethyl)-2-pyridyl]methyl] quinoline-6-carboxamide]
19 | 760 | > 1000 | 9.63 | – | Cc1cc2cc(C(=O)N(Cc3ccc(C(F)(F)F)cn3)C3CC3C3CC3)ccc2nc1N (stereo not drawn) [Example 705, 2-amino-N-(2-cyclopropylcyclopropyl)-3-methyl-N-[[5-(trifluoromethyl)-2-pyridyl]methyl] quinoline-6-carboxamide]
20 | 155 | > 1000 | 2.79 | – | Cc1csc(CN(Cc2ccc(C(F)(F)F)cn2)C(=O)c2ccc3nc(N)c(C)cc3c2)n1 [Example 708, 2-amino-3-methyl-N-[(4-methylthiazol-2-yl)methyl]-N-[[5-(trifluoromethyl)-2-pyridyl]methyl]quinoline-6-carboxamide]
21 | 334 | 1430 | 2.97 | – | Cc1cc(N)nc2ccc(C(=O)N(Cc3ccc(C(F)(F)F)cn3)Cc3ccn(C)n3)cc12 [Example 709, 2-amino-4-methyl-N-[(1-methylpyrazol-3-yl)methyl]-N-[[5-(trifluoromethyl)-2-pyridyl]methyl] quinoline-6-carboxamide]
22 | 177 | 1140 | 4.13 | – | Cc1cc(N)nc2ccc(C(=O)N(Cc3ccc(C(F)(F)F)cn3)Cc3ncn(C)n3)cc12 [Example 710, 2-amino-4-methyl-N-[(1-methyl-1,2,4-triazol-3-yl)methyl]-N-[[5-(trifluoromethyl)-2-pyridyl]methyl] quinoline-6-carboxamide]
